# Results from patent US10905683B2, “Compositions and uses of amidine derivatives” (BIOCRYST PHARMACEUTICALS, INC., priority 2014, dated 2021).
# Several values for one entry are separate records, joined by “and”; a condition that tells them apart may be missing. Identical values can stand only once. Like-named read-outs stand apart in the source and are kept apart here.
# Columns and labels:
# [1] = Absorption enhancement studies in the rat, intragastric dosing, plasma concentration
# Procedure: Based on the solubility data that was reported previously, combinations of solvents were evaluated to study the effect of formulation composition on oral absorption.
# Combinations of solvents and surfactants were evaluated in rat, dog and nonhuman primate models at levels appropriate for a potential human oral pharmaceutical product.
# The early studies in rats used aqueous dosing solutions.
# These formulations included a variety of solvents and co-solvents for evaluation to maximize absorption and form a physicochemically stable liquid. Unless otherwise indicated, the percentages are expressed by weight as a proportion of the total weight of all excipients present in the mixture (i.e. excluding the active ingredient).
# [2] = Stability and photostability of formulations
# Procedure: This is a standard practice in the pharmaceutical industry in order to accelerate any chemical reactions that may occur due to environmental conditions (temperature, oxygen, light). […] If the stability data from the stress studies indicates a potential stability challenge, then further studies are required to identify the stability issue and resolve it.
# Initial stability studies were conducted under accelerated conditions. […] Several antioxidants were identified for study. These antioxidants are pharmaceutically acceptable for use in human oral dosage forms and are compatible with the gelatin composition in a soft gelatin capsule.
# Stability studies were performed with formulations that were protected from light and formulations exposed to light.
# [3] = Phase 1 Part 1, single ascending oral dose pharmacokinetics and food effect; type: in vivo, human; conditions: for Tmax: median
# Procedure: A two-part, Phase 1, double-blind, placebo-controlled study of the compound of Example 1 was conducted in healthy subjects. Part 1 of the study assessed the safety, tolerability and the pharmacokinetic (PK) and pharmacodynamic (PD) properties of the compound of Example 1 following a single ascending dose. Subjects were enrolled in five sequential cohorts and received the compound of Example 1 (50 mg, 125 mg, 250 mg, 500 mg or 1000 mg; n=6/cohort) or placebo (n=2/cohort) under fasting conditions. To enable a food-effect assessment on exposure, subjects enrolled in Cohort 4 (500 mg or placebo) subsequently received a second dose of the compound of Example 1 following a high-fat breakfast.
# A summary of the pharmacokinetic parameters for fasting, single oral doses of 50 to 1000 mg of the compound of Example 1 (Part 1) is presented in Table 16.
# Compound concentrations then declined biphasically and were quantifiable through 9 hours postdose in Cohort 1 (50 mg) and 24 hours postdose in Cohorts 4 and 5 (500 and 1000 mg).
# [4] = Relative bioavailability crossover study, soft v. hard gelatin capsules and food effect; type: in vivo, human
# Procedure: A single dose, randomized, 3-period crossover study was conducted to evaluate the relative bioavailability of the compound of Example 1 formulated as a soft gelatin capsule to the compound of Example 1 formulated as a hard gelatin capsule and to determine the effect of food on the pharmacokinetics of the compound of Example 1. The goals of this study were to ascertain the relative bioavailability and pharmacokinetics of the compound of Example 1 in soft gelatin capsules to hard gelatin capsules when administered following an overnight fast in healthy subjects. In addition, the study estimated the effect of a high-fat meal upon the pharmacokinetics of the compound of Example 1 following single dose administration of 400 mg of the compound of Example 1 in a soft gelatin capsules to healthy subjects. Hard and soft gelatin capsules were prepared as in Example 8 and 9, respectively, below.
# The study was a single-dose, open-label, randomized, 3-way cross-over design. During each treatment period, eighteen subjects will receive a single dose of one of the following treatments in a randomized sequence:
# Treatment A: BCX4161 400 mg as 4×100 mg hard gelatin capsules following an overnight fast
# Treatment B: BCX4161 400 mg as 4×100 mg soft gelatin capsules following an overnight fast
# Treatment C: BCX4161 400 mg as 4×100 mg soft gelatin capsules following a high fat meal […]
# [5] = rat, intragastric 5 mg/Kg, aqueous dosing solution, individual rats 1-4
# [6] = 50 mg single oral dose, fasting, GM
# [7] = 125 mg single oral dose, fasting, GM
# [8] = 250 mg single oral dose, fasting, GM
# [9] = 500 mg single oral dose, FASTED, GM
# [10] = human, plasma, po, 50 mg, 50 mg single oral dose, fasting, GM
# [11] = human, plasma, po, 125 mg, 125 mg single oral dose, fasting, GM
# [12] = human, plasma, po, 250 mg, 250 mg single oral dose, fasting, GM
# [13] = human, plasma, po, 500 mg, 500 mg single oral dose, FASTED, GM
# [14] = human, plasma, po, 500 mg, 500 mg single oral dose, FED (high-fat breakfast), GM
# [15] = human, plasma, po, 1000 mg, 1000 mg single oral dose, fasting, GM
structure (smiles),measurement,setting,value
"C=Cc1cc(C(=O)Nc2ccc(C(=N)N)cc2)c(-c2ccc(C(=O)NCC3CC3)nc2C(=O)O)cc1OC [Example 1, 3-[2-(4-carbamimidoyl-phenylcarbamoyl)-5-methoxy-4-vinyl-phenyl]-6-(cyclopropylmethyl-carbamoyl)-pyridine-2-carboxylic acid]",concentration at 0 min,"[1]; rat, in vivo, 5 mg/Kg, Plasma concentration, 0 min, intragastric 5 mg/Kg, aqueous dosing solution, individual rats 1-4",0 ng/mL
same,"Plasma concentration, 0 min",[1]; [5],0 ng/mL
same,"Plasma concentration, 30 min",[1]; [5],108 ng/mL and <10 ng/mL and 188 ng/mL and 23 ng/mL
same,"Plasma concentration, 1 hr",[1]; [5],88 ng/mL and <10 ng/mL and 130 ng/mL and 30 ng/mL
same,"Plasma concentration, 2 hr",[1]; [5],123 ng/mL and <10 ng/mL and 87 ng/mL and 27 ng/mL
same,"Plasma concentration, 4 hr",[1]; [5],134 ng/mL and <10 ng/mL and 99 ng/mL and 24 ng/mL
same,"Plasma concentration, 8 hr",[1]; [5],48 ng/ml and <10 ng/ml (2×) and 30 ng/ml
same,Gastrointestinal (GI) absorption,"[1]; rats, aqueous dosing solutions",very low or zero
same,chemical stability under accelerated conditions,"[2]; combined with candidate formulations, exposed to light, oxygen and elevated temperatures",underwent degradation
same,photostability,[2]; exposed to ultraviolet (UV) or white (CW) light,demonstrated photodegradation
same,DN AUC0-inf,[3]; [6],1.94 ng·h/mL/mg
same,DN Cmax,[3]; [6],0.528 ng/mL/mg
same,DN AUC0-inf,[3]; [7],1.58 ng·h/mL/mg
same,DN Cmax,[3]; [7],0.432 ng/mL/mg
same,DN AUC0-inf,[3]; [8],1.41 ng·h/mL/mg
same,DN Cmax,[3]; [8],0.344 ng/mL/mg
same,reduction of AUCinf with food v. fasting,[3]; 500 mg single oral dose,23%
same,reduction of AUClast with food v. fasting,[3]; 500 mg single oral dose,20%
same,reduction of geometric mean Cmax after a high-fat breakfast v. fasting,[3]; 500 mg single oral dose,47%
same,DN AUC0-inf,[3]; [9],1.60 ng·h/mL/mg
same,DN Cmax,[3]; [9],0.311 ng/mL/mg
same,DN Cmax,"[3]; 1000 mg single oral dose, fasting, GM",0.193 ng/mL/mg
same,DN AUC0-inf,"[3]; 1000 mg single oral dose, fasting, GM, n = 5",0.983 ng·h/mL/mg
same,half-life,"[3]; human, plasma, oral, 50 mg, Cohort 1 (50 mg single dose), read-out: terminal half-life (converted)",~3 h
same,half-life,"[3]; human, plasma, oral, 500 mg, Cohort 4 (500 mg single dose), read-out: terminal half-life (converted)",~15 h
same,concentration at 12 h,"[3]; human, plasma, oral, single doses, read-out: plasma concentrations at 12 hours postdose",< 10 ng/mL
same,AUC(0-inf),[3]; [10],96.8 ng·h/mL
same,AUC(0-t),[3]; [10],89.6 ng·h/mL
same,Cmax,[3]; [10],26.4 ng/mL
same,half-life,"[3]; human, plasma, po, 50 mg, 50 mg single oral dose, fasting, GM, read-out: t1/2 (converted)",2.98 h
same,Tmax,"[3]; human, plasma, po, 50 mg, 50 mg single oral dose, fasting",1 h
same,AUC(0-inf),[3]; [11],197 ng·h/mL
same,AUC(0-t),[3]; [11],188 ng·h/mL
same,Cmax,[3]; [11],54 ng/mL
same,half-life,"[3]; human, plasma, po, 125 mg, 125 mg single oral dose, fasting, GM, read-out: t1/2 (converted)",4.66 h
same,Tmax,"[3]; human, plasma, po, 125 mg, 125 mg single oral dose, fasting",2 h
same,AUC(0-inf),[3]; [12],353 ng·h/mL
same,AUC(0-t),[3]; [12],336 ng·h/mL
same,Cmax,[3]; [12],85.9 ng/mL
same,half-life,"[3]; human, plasma, po, 250 mg, 250 mg single oral dose, fasting, GM, read-out: t1/2 (converted)",6.5 h
same,Tmax,"[3]; human, plasma, po, 250 mg, 250 mg single oral dose, fasting",2 h
same,AUC(0-inf),[3]; [13],802 ng·h/mL
same,AUC(0-t),[3]; [13],760 ng·h/mL
same,Cmax,[3]; [13],155 ng/mL
same,half-life,"[3]; human, plasma, po, 500 mg, 500 mg single oral dose, FASTED, GM, read-out: t1/2 (converted)",15.4 h
same,Tmax,"[3]; human, plasma, po, 500 mg, 500 mg single oral dose, FASTED",2 h
same,AUC(0-t),[3]; [14],586 ng·h/mL
same,Cmax,[3]; [14],82.1 ng/mL
same,AUC(0-inf),"[3]; human, plasma, po, 500 mg, 500 mg single oral dose, FED (high-fat breakfast), GM, n = 5",642 ng·h/mL
same,half-life,"[3]; human, plasma, po, 500 mg, 500 mg single oral dose, FED (high-fat breakfast), GM, n = 5, sampling to 96 hours, read-out: t1/2 (converted)",18.9 h
same,Tmax,"[3]; human, plasma, po, 500 mg, 500 mg single oral dose, FED (high-fat breakfast)",2.5 h
same,AUC(0-t),[3]; [15],981 ng·h/mL
same,Cmax,[3]; [15],193 ng/mL
same,AUC(0-inf),"[3]; human, plasma, po, 1000 mg, 1000 mg single oral dose, fasting, GM, n = 5",983 ng·h/mL
same,half-life,"[3]; human, plasma, po, 1000 mg, 1000 mg single oral dose, fasting, GM, n = 5, sampling to 96 hours, read-out: t1/2 (converted)",12.3 h
same,Tmax,"[3]; human, plasma, po, 1000 mg, 1000 mg single oral dose, fasting",2 h
same,"geometric mean Cmax, soft gelatin capsules as compared to hard gelatin capsules","[4]; 400 mg single dose, fasting",approximately 80%
same,bioavailability,[4]; formulated in a soft gelatin capsule,good bioavailability
